What was measured:
PKCε = target: T1, PKCε (Homo sapiens, UniProt Q02156); test: Protein kinase C assay, purified/recombinant PKC epsilon (32P incorporation into histones); format: biochemical
T1 construct: purchased Calbiochem
T1 sequence (Q02156 1-737): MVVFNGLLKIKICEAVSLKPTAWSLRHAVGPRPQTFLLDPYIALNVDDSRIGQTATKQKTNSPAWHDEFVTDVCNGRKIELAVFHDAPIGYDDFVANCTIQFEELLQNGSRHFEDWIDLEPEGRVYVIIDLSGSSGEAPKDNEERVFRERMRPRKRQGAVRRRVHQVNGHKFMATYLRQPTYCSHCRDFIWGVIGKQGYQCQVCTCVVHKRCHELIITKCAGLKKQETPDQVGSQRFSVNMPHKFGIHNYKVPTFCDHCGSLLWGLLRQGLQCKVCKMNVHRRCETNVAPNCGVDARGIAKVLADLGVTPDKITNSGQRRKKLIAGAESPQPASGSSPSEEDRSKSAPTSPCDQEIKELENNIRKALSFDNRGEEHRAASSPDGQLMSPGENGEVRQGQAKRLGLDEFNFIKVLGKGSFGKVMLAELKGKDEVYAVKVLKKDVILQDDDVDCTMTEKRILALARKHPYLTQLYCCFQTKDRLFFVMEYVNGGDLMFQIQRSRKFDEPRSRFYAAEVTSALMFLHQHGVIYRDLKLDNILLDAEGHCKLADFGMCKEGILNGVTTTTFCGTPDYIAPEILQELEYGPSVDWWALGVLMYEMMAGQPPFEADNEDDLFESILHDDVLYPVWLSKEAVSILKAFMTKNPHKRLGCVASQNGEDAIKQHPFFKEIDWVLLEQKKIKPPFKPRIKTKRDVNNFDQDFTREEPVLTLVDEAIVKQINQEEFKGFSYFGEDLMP
Method: Protein kinase C assay. Recombinant PKC (1 ng of alpha or epsilon isofonn) was mixed with the BR-101 (UCP-LA) in the presence of 10 micromoiar histones, 5 mM CaCl2, 1.2 μg/μl phosphatidyl-L-serine, 0.18 μg/μl 1,2-dioctanoyl-sn-glycerol (DAG), […], […] (pH 7.4), 0.8 tnIVI EDTA, 4 mM EGTA, 4% glycerol, 8 μg/ml aprotinin, 8 μ/ml leupeptin, and 2 mM benzamidine. 0.5 micro Ci [^y32P]ATP was added. The incubation mixture was incubated for 15 min at 37 degrees in a total volume of 10 microliters. The reaction was stopped by spotting the reaction mixtures on 1×2 cm strips of cellulose phosphate paper (Whatman P81) and immediately washing twice for 1 hr in 0.5% H3PO4. The cellulose phosphate strips were counted in a scintillation counter. In some experiments, phosphatidylserine, diacylglycerol, and/or calcium were removed.
Protein kinase C assay. Rat hippocampal cells were cultured and scraped in 0.2 ml homogenization buffer (20 triM Tris-HCl, pH 7.4, 50 mM NaF, 1 μg/ml leupeptin, and 0.1 mM PMSF) and homogenized by sonication in a Marsonix micro-probe sonicator (5 see, 10W). To measure PKC, 10 ul of cell homogenate or purified. PKC isozyme (purchased from Calbiochem) was incubated for 15 min at 37° C. in the presence of 10 μM histones, 4.89 mM CaCl2, 1.2 μg/μl phosphatidyl-L-serine, 0.18 μg/μl 1,2-dioctanoyl-sn-glycerol, 10 mM MgCl2, 20 mM HEPES (pH 7.4), 0.8 mM EDTA, 4 mM EGTA, 4% glycerol, 8 μg/ml aprotinin, 8 μg/ml leupeptin, and 2 mM benzamidine. 0.5 μCi [^γ-32P]ATP was added and ^32P-phosphoprotein formation was measured by adsorption onto phosphocellulose as described previously. Nelson and Alkon, J. Neurochemistry. 1995; 65: 2350-57. For measurements of activation by BR-101 (DCP-LA) and similar compounds, PKC activity was measured in the absence of diacylglycerol and phosphatidyl serine, as described by Kanno et al., and PKC δ, ε, η, and μ were measured in the absence of added EGTA and CaCl2, as described by Kanno et al., J. Lipid Res. 2006; 47: 1146-50. Low concentrations of Ca^2+ are used because high Ca^2+ interacts with the PKC phosphatidylserine binding site and prevents activation. For measurements of bryostatin activation, 1,2-diacylglycerol was omitted unless otherwise stated.
To determine their PKC isozyme specificity, the new compounds were preincubated with purified PKC for five minutes and the PKC activity was measured radiometrically.

TACE = TACE assay in N2a mouse neuroblastoma cells; format: cell-based; settings: FIG. 9a
Method: TACE Assay. TACE was measured by incubating 5 μl cell homogenate, 3 μl buffer (50 mM Tris-HCl 7.4 plus 25 mM NaCl plus 4% glycerol), and 1 of 100 μM TACE substrate IV (Aβz-LAQAVRSSSR-DPa) (Calbiochem) for 20 min at 37° in 1.5-ml polypropylene centrifuge tubes (Jin et al., Anal Biochem. 2002; 302: 269-75). The reaction was stopped by cooling to 4° C. The samples were diluted to 1 ml and the fluorescence was rapidly measured (ex=320 nm, em=420 nm) in a Spex Fluorolog 2 spectrofluorometer.

Aβ = Aβ levels in N2a neuroblastoma cells transfected with human APPSwe/PSID (Aβ1-42 ELISA); format: cell-based, mouse; settings: for levels of intracellular Aβ / levels of secreted Aβ: 24 h incubation, various concentrations; for levels of intracellular Aβ: FIG. 7a; for levels of secreted Aβ: FIG. 7b; for concentration dependence of Aβ inhibition: BR-101 and BR-111 up to 10 to 100 μM
Method: Cell culture. Rat hippocampal H19-71GF-IR cells (ATCC, Manassas, Va.) were plated onto poly-L-lysine coated plates and grown at 35° C. in DMEM/10% FCS for several days until about 50% coverage was obtained. The cells were then induced to differentiate into a neuronal phenotype by replacing the medium with 5 ml N2 medium containing 10 ng/ml basic fibroblast growth factor at 39° C. and grown in T-75 flasks at 37° C. Human SH-SY5Y neuroblastoma cells (ATCC) were cultured in 45% F12K/45% MEM/10% FCS. Mouse N2A neuroblastoma cells were cultured in DMEM/10% FCS without glutamine. Rat hippocampal neurons from 18-day-old embryonic
AB Measurement and Cell Viability Assay. Aβ was measured using an Aβ1-42 human fluorimetric ELISA kit (Invitrogen) according to the manufacturer's instructions. Results were measured in a Biotek Synergy HT microplate reader. AlamarBlue and CyQuant NF (Invitrogen) according to the manufacturer's instructions.
To measure the effects of PKCε activation on Aβ production, we used mouse neuro2a (N2a) neuroblastoma cells transfected with human APPSwe/PSID, which produce large quantities of Aβ. Petanceska et al., J Neurochem. 1996; 74: 1878-84. […] With bryostatin, which activates PKC by binding to the diacylglycerol-binding site, the inhibition was biphasic, with concentrations of 20 nM or higher producing no net effect. This may be explained by the ability of this class of PKC activators to downregulate PKC when used at high concentrations.

SMILES | activation of PKCε (PKCε; at 10 μM, preincubated with purified PKC for five minutes) | activation of PKCε (PKCε; purified PKCε, lowest concentration tested (10 nM), FIG. 2) | TACE activity (TACE) | levels of intracellular Aβ (Aβ) | levels of secreted Aβ (Aβ) | concentration dependence of Aβ inhibition (Aβ) | activation of purified PKCε (PKCε; FIG. 3) | concentration needed to activate PKC, times lower than for BR-101 (DCP-LA) (PKCε; FIG. 3)
CCCCCC1CC1CC1CC1CCCCCCCC(=O)O (stereo not drawn) [BR-101, 8-[2-(2-pentyl-cyclopropylmethyl)-cyclopropyl]-octanoic acid] | effective activator | 2.75 fold | small increases | markedly reduced | markedly reduced | monotonically increasing inhibition |  | 
CCC1CC1CC1CC1CC1CC1CC1CC1CC1CC1CC1CC1CCC(=O)OC (stereo not drawn) [BR-111, methyl-3-(2-((2-((2-((2-((2-((2-ethylcyclopropyl)methyl)cyclopropyl)methyl)cyclopropyl)methyl)-cyclopropyl)methyl)cyclopropyl)methyl)cyclopropyl)propanoate] |  |  | small increases | markedly reduced | markedly reduced | monotonically increasing inhibition | activated purified PKCε to a similar extent | approx. 100 times

From patent US11820745B2, “PKC-activating compounds for the treatment of neurodegenerative diseases” (Synaptogenix, Inc., priority 2008, dated 2023)
